From ChEMBL document CHEMBL1201862, “PubChem BioAssay data set” (2004)
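Five compound concentrations were applied to cells in 96-well plates for 48 hours; endpoints were derived by simple linear interpolation of the resulting dose-response curve. GI50 marks 50% less growth.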 Activity calls are given as the source filed them. Rule as the data show it: active = GI50 up to about 1.1 µM and inactive = higher.

Tests used:
Assay in all cases: NCI anticancer screen, dose series, 48 h
[1] = system: OVCAR-4
[2] = system: UACC-62
[3] = system: EKVX
[4] = system: HCC 2998
[5] = system: DLD-1
[6] = system: RPMI-8226
[7] = system: RXF 393
[8] = system: SK-MEL-5
[9] = system: SW-620
[10] = system: NCI-H23
[11] = system: TK-10
[12] = system: UO-31
[13] = system: K562
[14] = system: M19-MEL
[15] = system: IGROV-1
[16] = system: HOP-92
[17] = system: CAKI-1

Measured: GI50

COc1ccc(OC(C)C(=O)O)c2c1CCCC2=O (centres undefined)
inactive: [1] > 100 µM | [2] > 100 µM | [3] > 100 µM | [4] > 100 µM | [5] > 100 µM | [6] > 100 µM | [7] > 100 µM | [8] > 100 µM | [9] > 100 µM | [10] > 100 µM | [11] > 100 µM | [12] > 100 µM | [13] > 100 µM | [14] > 100 µM | [15] > 100 µM

COc1ccc(-c2c(C3=NCCCN3)nnn2-c2ccc([N+](=O)[O-])cc2)cc1
inactive: [1] > 100 µM | [2] > 100 µM | [3] > 100 µM | [4] > 100 µM | [5] > 100 µM | [6] > 100 µM | [7] > 100 µM | [8] > 100 µM | [9] > 100 µM | [10] > 100 µM | [16] > 100 µM | [11] > 100 µM | [12] > 100 µM | [13] > 100 µM | [17] > 100 µM | [14] > 100 µM | [15] > 100 µM

O=[N+]([O-])c1ccc(-n2nnc(C3=NCCN3)c2-c2ccc(Cl)cc2)cc1
inactive: [1] > 100 µM | [2] > 100 µM | [3] > 100 µM | [4] > 100 µM | [5] > 100 µM | [6] > 100 µM | [7] 93.3 µM | [8] > 100 µM | [9] > 100 µM | [10] > 100 µM | [16] > 100 µM | [11] 69 µM | [12] 83.2 µM | [13] 83.8 µM | [17] > 100 µM | [14] > 100 µM | [15] > 100 µM

COC1(OC)C2(Cl)C3=CCCC=C3C1(Cl)C(Cl)=C2Cl
inactive: [1] 18.2 µM | [2] 25.5 µM | [3] 16.1 µM | [4] 29.2 µM | [5] 28.9 µM | [6] 12.1 µM | [7] 13.9 µM | [8] 14.3 µM | [9] 17.5 µM | [10] 21.9 µM | [16] 21.5 µM | [11] > 100 µM | [12] 21.7 µM | [13] > 10 µM | [17] 18.9 µM | [14] 18.8 µM | [15] 36.5 µM

CCCCCCC(=O)CC(=O)C(=O)Nc1ccccc1C
inactive: [1] > 100 µM | [2] > 100 µM | [3] > 100 µM | [4] > 100 µM | [5] > 67.5 µM | [6] > 100 µM | [7] > 100 µM | [8] > 100 µM | [9] > 39.7 µM | [10] > 100 µM | [16] > 100 µM | [11] > 100 µM | [12] > 100 µM | [13] > 100 µM | [17] > 100 µM | [14] > 100 µM | [15] > 100 µM

CC(C)C(NCc1c2ccccc2nc2ccccc12)C(=O)O (centres undefined)
inactive: [1] 15 µM | [3] 40.6 µM | [4] 47.9 µM | [5] 23.8 µM | [6] 27.3 µM | [7] 24.5 µM | [8] 64.4 µM | [9] 39.9 µM | [10] 41.8 µM | [16] 12.4 µM | [11] > 100 µM | [13] 32.6 µM | [17] 28.6 µM | [14] 33 µM | [15] 27.4 µM

CN(C)/C(=N/C(=S)Nc1ccccc1)SCc1ccccc1
inactive: [1] 5.47 µM | [2] 6.17 µM | [3] > 100 µM | [4] 36.4 µM | [5] 44.3 µM | [6] 10.3 µM | [7] 27.7 µM | [8] 3.14 µM | [9] > 100 µM | [10] 40.9 µM | [11] > 100 µM | [12] 22.5 µM | [13] 12.3 µM | [17] 24.2 µM | [14] 14.7 µM | [15] 74.3 µM

c1ccc(-c2nnc(-c3nn(-c4ccccc4)c4nc5ccccc5nc34)o2)cc1
inactive: [1] > 100 µM | [2] 69.2 µM | [3] > 100 µM | [4] > 100 µM | [5] 25.1 µM | [6] 39.1 µM | [7] 4.3 µM | [9] 92.3 µM | [10] 41.2 µM | [11] > 100 µM | [12] 37.2 µM | [13] 31 µM | [17] > 100 µM | [14] 47.8 µM | [15] > 100 µM
